Assay results as given in the supplement of paper PMC10307832.

Tests used:
Experiment in all cases: relative viability (nuclei count vs DMSO), 5 days (fraction); higher = more cells survive
[1] = compound: C[C@@H](N)c1ccc(C(=O)Nc2ccnc3[nH]ccc23)cc1 + NC(=O)Nc1cc(-c2cccc(F)c2)sc1C(=O)N[C@H]1CCCNC1 [AZD7762] (partner 0.2 µM)
Outline: (§1)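 Lung cancer cell lines were pin-tool dosed in 1536-well plates on the day after seeding, with either a lone drug or a fixed anchor-drug dose plus five library-drug doses (not always all listed) in √10 steps. Nuclei were counted on 4× images after 5 days. Relative viability is the ratio of treated-well to vehicle-well nuclei counts, with each value a median of duplicate plates.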

[2] = compound: C[C@@H](N)c1ccc(C(=O)Nc2ccnc3[nH]ccc23)cc1 + Cc1nc(Nc2ncc(C(=O)Nc3c(C)cccc3Cl)s2)cc(N2CCN(CCO)CC2)n1 [Dasatinib] (partner 0.075 µM)
Outline: as §1

[3] = compound: C1CNCCC1C2=CC(=NN2)C3=CC=NC=C3 + O=C(c1cc(Cc2n[nH]c(=O)c3ccccc23)ccc1F)N1CCN(C(=O)C2CC2)CC1 [Olaparib] (partner 8 µM)
Outline: as §1

[4] = compound: C[C@@H](N)c1ccc(C(=O)Nc2ccnc3[nH]ccc23)cc1 + CS(=O)(=O)N1CCN(Cc2cc3nc(-c4cccc5[nH]ncc45)nc(N4CCOCC4)c3s2)CC1 [Pictilisib] (partner 1 µM)
Outline: as §1

Row | Cell Line | relative viability ([1]; first compound 0.04 µM) | relative viability ([1]; first compound 0.1265 µM) | relative viability ([1]; first compound 0.4 µM) | relative viability ([1]; first compound 1.265 µM) | relative viability ([1]; first compound 4 µM) | relative viability ([2]; first compound 0.04 µM) | relative viability ([2]; first compound 0.1265 µM) | relative viability ([2]; first compound 0.4 µM) | relative viability ([2]; first compound 1.265 µM) | relative viability ([2]; first compound 4 µM) | relative viability ([3]; first compound 0.08 µM) | relative viability ([3]; first compound 0.8 µM) | relative viability ([3]; first compound 2.53 µM) | relative viability ([3]; first compound 8 µM) | relative viability ([4]; first compound 0.04 µM) | relative viability ([4]; first compound 0.1265 µM) | relative viability ([4]; first compound 0.4 µM) | relative viability ([4]; first compound 1.265 µM) | relative viability ([4]; first compound 4 µM)
1 | LOU-NH91 | 0.622 | 0.782 | 0.751 | 0.628 | 0.518 | 0.425 | 0.571 | 0.527 | 0.492 | 0.394 | 0.927 | 0.963 | 0.974 | 0.877 | 0.517 | 0.517 | 0.562 | 0.398 | 0.549
2 | LU99A |  | 0.354 | 0.467 | 0.511 | 0.771 |  | 0.507 | 0.536 | 0.495 | 0.508 | 0.257 | 0.259 | 0.269 | 0.314 | 0.307 | 0.319 | 0.385 | 0.297 | 0.324
3 | LXF-289 | 1.07 | 1.09 | 1.23 | 1.26 | 0.934 | 0.105 | 0.234 | 0.185 | 0.11 | 0.116 | 1.04 | 1.16 | 0.968 | 1.05 | 0.943 | 0.779 | 0.928 | 0.872 | 0.683
4 | NCI-H23 | 0.268 | 0.169 | 0.372 |  | 0.539 | 0.77 | 0.736 | 0.862 |  | 0.76 | 0.375 |  | 0.403 | 0.349 | 0.605 | 0.536 | 0.487 |  | 0.557
5 | NCI-H322M | 0.544 | 0.66 | 0.647 | 0.837 | 0.777 | 0.242 | 0.253 | 0.266 |  | 0.318 | 0.73 | 0.716 | 0.844 | 0.923 | 0.681 | 0.536 | 0.561 |  | 0.731
6 | NCI-H358 | 0.605 | 0.47 | 0.485 | 0.478 | 0.472 | 0.173 | 0.193 | 0.169 | 0.165 | 0.18 | 0.48 | 0.691 | 0.648 | 0.525 | 0.339 | 0.31 | 0.33 | 0.289 | 0.326
7 | NCI-H441 | 1.29 | 0.841 | 1.49 | 1.21 | 1.13 | 0.671 | 0.739 | 0.867 |  | 0.667 | 0.422 | 0.673 | 0.57 | 0.567 | 0.549 | 0.569 | 0.553 | 0.4 | 0.458
8 | NCI-H460 | 0.66 | 0.656 | 0.844 | 0.873 | 0.913 | 0.463 | 0.525 | 0.451 | 0.27 | 0.337 | 0.303 | 0.505 | 0.451 | 0.412 | 0.467 | 0.252 | 0.489 | 0.0436 | 0.372
9 | NCI-H596 | 1.02 | 1.1 | 0.828 | 1.01 | 1.04 | 0.671 | 0.537 | 0.493 |  | 0.557 | 0.733 | 0.709 | 0.687 | 0.72 | 0.435 | 0.44 | 0.408 | 0.416 | 0.319
10 | NCI-H647 | 0.397 | 0.423 | 0.517 | 0.392 | 0.439 | 0.15 | 0.172 | 0.157 | 0.166 | 0.133 | 0.556 | 0.661 | 0.511 | 0.552 | 0.301 | 0.394 | 0.451 |  | 0.42
11 | NCI-H650 |  | 1.09 | 0.992 |  | 0.886 |  | 0.41 | 0.393 | 0.245 | 0.32 | 0.4 | 0.424 | 0.376 | 0.405 | 0.81 | 0.753 | 0.704 |  | 0.708
12 | NCI-H727 | 1.04 | 0.801 | 0.788 | 0.996 | 0.833 | 0.628 | 0.529 | 0.71 | 0.479 | 0.725 | 0.76 | 0.798 | 0.669 | 0.69 | 0.63 | 0.466 | 0.785 | 0.223 | 0.683
13 | NCI-H838 | 0.848 | 0.957 | 0.936 | 0.852 | 0.752 | 0.221 | 0.305 | 0.26 | 0.187 | 0.233 | 0.708 | 0.795 | 0.815 | 0.799 | 0.402 | 0.421 | 0.335 | 0.31 | 0.317
14 | NCI-H1355 | 0.761 | 0.819 | 0.901 | 0.91 | 0.871 | 0.516 | 0.738 | 0.764 | 0.671 | 0.427 | 0.704 | 0.727 | 0.792 | 0.792 | 0.338 | 0.429 | 0.555 |  | 0.351
15 | NCI-H1395 | 0.396 | 0.391 | 0.395 |  | 0.39 | 0.416 | 0.431 | 0.368 | 0.394 | 0.399 | 0.46 | 0.404 | 0.447 | 0.522 | 0.566 | 0.626 | 0.655 |  | 0.627
16 | NCI-H1437 | 1.12 | 1.13 | 1.14 | 1.13 | 1.04 | 0.451 | 0.292 | 0.372 | 0.471 | 0.393 | 0.636 | 0.644 | 0.679 | 0.642 | 0.468 | 0.419 | 0.407 | 0.396 | 0.488
17 | NCI-H1651 | 0.484 | 0.493 | 0.574 | 0.737 | 0.675 | 0.389 | 0.429 | 0.414 | 0.288 | 0.41 | 0.174 | 0.202 | 0.191 | 0.176 | 0.663 | 0.646 | 0.684 | 0.808 | 0.799
18 | NCI-H1666 | 0.824 | 0.953 | 1.13 | 1.12 | 0.98 | 0.727 | 0.803 | 0.822 | 0.722 | 0.625 | 0.704 | 0.768 | 0.806 | 0.745 | 0.527 | 0.407 | 0.498 | 0.476 | 0.728
